Assay [1] deals with T1, Cyclin-dependent kinase 2 (Homo sapiens, UniProt P24941).
Description: Inhibition of CDK2 (unknown origin)-cyclin A interaction preincubated for 30 mins at room temperature followed by incubation at 40 degC for 30 mins by SDS-PAGE analysis
The target of assay [2] is T1, Cyclin-dependent kinase 2. The source holds these as a separate data set.
Assay [3] has as its target T1, Cyclin-dependent kinase 2. This is another data set of the same source.
Description: Displacement of B-Alexa-Fluor647 from CDK2 (unknown origin) by fluorescence polarization assay
For assay [4], the target named is T1, Cyclin-dependent kinase 2. This is another data set of the same source.
Description: Binding affinity to human CDK2 by isothermal titration calorimetric analysis

Each structure is given as a SMILES string.

The values below come from ChEMBL document CHEMBL3098110, “Modulating the interaction between CDK2 and cyclin A with a quinoline-based inhibitor” (Bioorg Med Chem Lett, 2014).

The term IC50 denotes the concentration that inhibits the measured activity by half. A low value points to higher potency. A word on the Kd: it is the concentration at which binding is half-saturated. A low value points to higher affinity. As usually defined, the Ki is a measure of affinity in units of concentration, obtained from inhibition or displacement. A high value points to a looser hold on the target.

The molecule `COC(=O)[C@H](Cc1ccc(OC)cc1)NC(=O)c1cc(C(=O)O)c2cc(-c3cccc(C(F)(F)F)c3)ccc2n1` came in with a half-inhibitory concentration (IC50) in assay [1] greater than 10000 nM. The Kd in assay [2] was greater than 40000 nM. Moreover, the inhibition constant Ki in assay [3] was greater than 40000 nM.
Molecule `COC(=O)[C@H](Cc1ccc(O)cc1)NC(=O)c1cc(C(=O)NS(C)(=O)=O)c2cc(-c3cccs3)ccc2n1` yielded an IC50 in assay [1] greater than 10000 nM. The dissociation constant (Kd) in assay [2] is greater than 40000 nM. In assay [3], the inhibition constant (Ki) is greater than 40000 nM.
For the molecule `O=C(NCCc1ccc(O)cc1)c1cc(C(=O)O)c2cc(-c3cccs3)ccc2n1`, in assay [1], the half-inhibitory concentration (IC50) was greater than 10000 nM. The same molecule had a dissociation constant (Kd) in assay [2] greater than 40000 nM. The molecule further registered a Ki in assay [3] greater than 40000 nM.
Regarding `COC(=O)[C@H](Cc1ccc(O)cc1)NC(=O)c1cc(C(=O)O)c2cc(/C=C/c3ccc(Cl)cc3)ccc2n1`, the IC50 in assay [1] was greater than 10000 nM. Besides, the Kd in assay [2] came to 5 nM. In addition, in assay [3], the Ki was less than 100 nM.
`COC(=O)[C@H](Cc1ccc(O)cc1)NC(=O)c1cc(C(=O)O)c2cc(N3CCOCC3)ccc2n1` showed an IC50 in assay [1] greater than 10000 nM. This molecule also registered a dissociation constant (Kd) in assay [2] of 2400 nM. Besides, the Ki in assay [3] was found to be 2800 nM.
Turning to `O=C(N[C@@H](Cc1ccc(O)cc1)C(=O)O)c1cc(C(=O)O)c2cc(-c3cccc(C(F)(F)F)c3)ccc2n1`, in assay [1], the concentration for half-maximal inhibition (IC50) is greater than 10000 nM. In addition, the Kd in assay [2] was greater than 10000 nM. The Ki in assay [3] is 12000 nM.
In turn, `COC(=O)[C@H](Cc1ccc(O)cc1)NC(=O)c1cc(C(=O)O)c2cc(-c3cc(Cl)cc(Cl)c3)ccc2n1` returned a half-maximal inhibitory concentration (IC50) in assay [1] greater than 10000 nM. Binding in assay [2] was characterised by a dissociation constant (Kd) of 320 nM. The molecule also gave a Ki in assay [3] of 200 nM.
`COC(=O)[C@H](Cc1ccc(O)cc1)NC(=O)c1cc(C(N)=O)c2cc(-c3cccs3)ccc2n1`: in assay [1], the 50% inhibitory concentration (IC50) was greater than 10000 nM. This molecule also came in with a Kd in assay [2] greater than 40000 nM. The molecule also had a Ki in assay [3] greater than 40000 nM.
In the case of `COC(=O)[C@H](Cc1cccc(O)c1)NC(=O)c1cc(C(=O)O)c2cc(-c3cccc(C(F)(F)F)c3)ccc2n1`, the IC50 in assay [1] was greater than 10000 nM. The equilibrium dissociation constant (Kd) in assay [2] was greater than 40000 nM. This molecule came in with an inhibitory constant (Ki) in assay [3] greater than 40000 nM.
In turn, `CNC(=O)[C@H](Cc1ccc(O)cc1)NC(=O)c1cc(C(=O)O)c2cc(/C=C/c3ccc(Cl)cc3)ccc2n1` returned an IC50 in assay [1] greater than 10000 nM. In assay [2], this molecule yielded an equilibrium dissociation constant (Kd) of 300 nM. The molecule further gave a Ki in assay [3] of 100 nM.
For `COC[C@H](Cc1ccc(O)cc1)NC(=O)c1cc(C(=O)O)c2cc(-c3cccc(C(F)(F)F)c3)ccc2n1`, the IC50 in assay [1] is greater than 10000 nM. The molecule also showed a dissociation constant Kd in assay [2] of 240 nM. The same molecule had a Ki in assay [3] of 100 nM.
As to `CN(C)C(=O)[C@H](Cc1ccc(O)cc1)NC(=O)c1cc(C(=O)O)c2cc(/C=C/c3ccc(Cl)cc3)ccc2n1`, the concentration for half-maximal inhibition (IC50) in assay [1] was greater than 10000 nM. In assay [2], the Kd came to 350 nM. This molecule yielded an inhibition constant Ki in assay [3] of 160 nM.
On the same counts, the results for `C[C@H](Cc1ccc(O)cc1)NC(=O)c1cc(C(=O)O)c2cc(-c3cccc(C(F)(F)F)c3)ccc2n1` are greater than 10000 nM, 4000 nM and 2500 nM.
In assay [1], `COC(=O)[C@H](Cc1ccc(O)cc1)NC(=O)c1cc(C(=O)O)c2cc(CCc3ccc(Cl)cc3)ccc2n1` registered a concentration for half-maximal inhibition (IC50) greater than 10000 nM. For the same molecule, the results for the Kd in assay [4] and in assay [2] were 55 nM and 48 nM, respectively. The molecule also showed a Ki in assay [3] of less than 100 nM.
For the molecule `COC(=O)[C@H](Cc1ccc(O)cc1)NC(=O)c1cc(C(=O)O)c2cc(-c3cccc(C(F)(F)F)c3)ccc2n1`, in assay [1], the IC50 is greater than 10000 nM. The Kd in assay [4] was determined as 50 nM; in assay [2], 40 nM. This molecule returned an inhibition constant Ki in assay [3] of less than 100 nM.
On to `COC[C@H](Cc1ccc(O)cc1)NC(=O)c1cc(C(=O)O)c2cc(/C=C/c3ccc(Cl)cc3)ccc2n1`, for which, in assay [1], the IC50 is greater than 10000 nM. The same molecule registered a Kd in assay [2] of 25 nM. This molecule came in with a Ki in assay [3] of less than 100 nM.
In assay [1], `COC(=O)[C@H](Cc1ccc(F)cc1)NC(=O)c1cc(C(=O)O)c2cc(-c3cccc(C(F)(F)F)c3)ccc2n1` registered an IC50 greater than 10000 nM. In assay [2], the Kd was determined as 4000 nM. In addition, the inhibitory constant (Ki) in assay [3] turned out to be 2500 nM.
In assay [1], `COC(=O)[C@H](Cc1ccc(O)cc1)NC(=O)c1cc(C(=O)O)c2cc(-c3ccc(Cl)cc3)ccc2n1` returned an IC50 greater than 10000 nM. In addition, the dissociation constant Kd in assay [2] worked out at 900 nM. Also, in assay [3], the affinity, expressed as Ki, was 900 nM.
Take `COC(=O)[C@H](Cc1ccc(O)cc1)NC(=O)c1cc(CO)c2cc(-c3cccc(C(F)(F)F)c3)ccc2n1`: the IC50 in assay [1] is greater than 10000 nM. Further, the Kd in assay [2] was greater than 40000 nM. Moreover, in assay [3], the Ki was greater than 40000 nM.
`COC(=O)[C@H](Cc1ccc(O)cc1)NC(=O)c1cc(C(=O)O)c2cc(-c3ccccc3)ccc2n1` gave a half-maximal inhibitory concentration (IC50) in assay [1] greater than 10000 nM. Also, the dissociation constant Kd in assay [2] was 12000 nM. In assay [3], this molecule displayed an inhibition constant (Ki) of 10000 nM.
Turning to `CCCCCCc1ccc2nc(C(=O)N[C@@H](Cc3ccc(O)cc3)C(=O)OC)cc(C(=O)O)c2c1`, in assay [1], the IC50 was greater than 10000 nM. The same molecule yielded a Kd in assay [2] of 76 nM. This molecule also had a Ki in assay [3] of less than 100 nM.
The molecule `COC(=O)[C@H](Cc1ccc(O)cc1)NC(=O)c1cc(C(=O)O)c2cc(-c3cccs3)ccc2n1` had a half-inhibitory concentration (IC50) in assay [1] greater than 10000 nM. The Kd in assay [4] was found to be 1000 nM; in assay [2], 1100 nM. This molecule showed a Ki in assay [3] of 900 nM.
On to `CCC[C@H](Cc1ccc(O)cc1)NC(=O)c1cc(C(=O)O)c2cc(-c3cccc(C(F)(F)F)c3)ccc2n1`, for which, in assay [1], the IC50 was greater than 10000 nM. In assay [2], this molecule yielded a Kd of 400 nM. The molecule further came in with an inhibitory constant (Ki) in assay [3] of 300 nM.
